Experimental data reported in patent US20200281904A1, “PROPHYLACTIC AND/OR THERAPEUTIC AGENT FOR DISEASES INVOLVING IDO EXPRESSION” (TAIHO PHARMACEUTICAL CO., LTD., priority 2017, published 2020).

Experiments:
IDO protein = assay: Inhibitory effect on IDO protein expression, Western blotting; type: cell-based; conditions: human stomach cancer line NCI-N87; IFNγ 100 U/mL; 0.001, 0.01, 0.1 and 1 μM; 24 hours; FIG. 1
Procedure: Protein expression was detected by a Western blotting method. A human stomach cancer line NCI-N87 (CRL-5822) was purchased from American Type Culture Collection (ATCC). The cells were cultured in RPMI1640 (Wako Pure Chemical Industries, Ltd.) medium supplemented with 10% fetal bovine serum (FBS). The cells were seeded in a 6-well plate (#140675, Nunc) at 1×10^6 cells per well. The cells were cultured in a 5% CO2 incubator at 37° C. for 24 hours, INFγ (PeproTech, Inc.) at 100 U/mL and test substances [tanespimycin (Biotrend), ganetespib, BIIBO21 and Compound 1] in amounts of 0.001 μM, 0.01 μM, 0.1 μM and 1 μM each were then added, and the cells were further cultured for 24 hours. After the culturing, the cells were washed with ice-cooled PBS, and the cells were then lysed with a cytolytic agent. The cell lysate solution was centrifuged, and the soluble fraction was then removed, and subjected to thermal denaturation, followed by protein separation by SDS-PAGE.
10-fold dilution of TBST (Santa Cruz) with Milli-Q water was used as a washing solution, and the TBST solution containing 5% Blocking One (nacalai tesque) was used as an antibody diluting solution.
After completion of SDS-PAGE, the protein was transferred to a PVDF membrane (Trans-Blot Turbo Midi PVDF Transfer Pack, Biorad) by using a blotting device (Trans-Blot Turbo Transfer System, Biorad). The membrane after the transfer was blocked by incubation at room temperature for 60 minutes or more with Blocking One. […] The PVDF membrane was washed three times with the washing solution, and then immersed in SuperSignal West Pico Chemiluminescent Substrate (Thermo Scientific) for detection of GAPDH, or SuperSignal West Dura Extended Duration Substrate (Thermo Scientific) for detection of IDO, and chemiluminescence was detected by using Image Analyzer Amersham Imager 600QC (GE Healthcare Japan Corporation).

GIST-T1 = assay: Cell growth inhibition, CellTiter-Glo2.0 Assay, IFNγ added; type: cell-based; conditions: Homo sapiens, GISTT1, IFNγ 100 U/mL, 72 hours, number of surviving cells reduced to 50% of control
Procedure: (§1) Human stomach cancer line NCI-N87 (CRL-5822), human lung cancer line NCI-H1975 (CRL-5908) and human lung cancer line HCC827 (CRL-2868) were purchased from ATCC, and human gastrointestinal stromal tumor line GIST-T1 (GIST01) was purchased from Cosmo Bio Co., Ltd. NCI-N87, NCI-H1975 and HCC827 were cultured in RPM11640 (Wako Pure Chemical Industries, Ltd.) medium supplemented with 10% FBS, and GIST-T1 was cultured in DMEM (Wako Pure Chemical Industries, Ltd.) medium supplemented with 10% FBS. The IDO protein and GAPDH were detected in the same manner as in Example 1 described above.
(§2) The amount of ATP generated from surviving cells was determined by CellTiter-Glo2.0 Assay (# G9243, Promega Corporation) to evaluate the cell growth inhibition ability of test substance. The cells of GIST-T1, HCC827, NCI-H1975 and NCI-N87 were seeded in 96-well plates (#165305, Thermo Scientific) at 1×10^4 (NCI-N87), 2×10^3 (HCC827 and HCI-H1975) and 3×10^3 (GIST-T1) per well, and cultured in a 5% CO2 incubator at 37° C. for 24 hours. After the culturing for 24 hours, INFγ (PeproTech) at 100 U/mL and a test substance (Compound 1) in amounts of 0.001 μM, 0.003 μM, 0.01 μM, 0.03 μM, 0.1 μM, 0.3 μM, 1 μM, 3 μM and 10 μM each were added, and further cultured for 72 hours. Equivalent amount of CellTiter-Glo2.0 Assay reagent as the medium was added to each well, the mixture was stirred for 2 minutes using a shaker under shading condition, and the plate was then left to stand at room temperature for about 10 minutes. The intensity of luminescence was measured using a microplate reader (EnSpire™ Multimode Plate Reader, PerkinElmer Japan Co., Ltd.), and used as an index of the number of surviving cells in each well. Using the intensity of luminescence of a group not treated with a test substance (control group) as a control, the cell survival rate (%) was calculated by using the following equation. From the obtained survival rate, the concentration (IC50 (μM)), at which the number of surviving cells is reduced to 50% of the control, was determined by a curve fitting regression analysis tool using Regression Analysis Tool XLfit5.3.0.8 (IDBS Ltd.).
(§3) Cell survival rate=T/C×100
(§4) T: Amount of luminescence in wells with a test substance
(§5) C: Amount of luminescence in wells with no test substance

HCC827 = assay: as above; type: cell-based; conditions: Homo sapiens, IFNγ 100 U/mL, 72 hours, number of surviving cells reduced to 50% of control
Procedure: as §1, §2, §3, §4, §5

NCI-H1975 = assay: as above; type: cell-based; conditions: Homo sapiens, IFNγ 100 U/mL, 72 hours, number of surviving cells reduced to 50% of control
Procedure: as §1, §2, §3, §4, §5

NCI-N87 = assay: as above; type: cell-based; conditions: Homo sapiens, IFNγ 100 U/mL, 72 hours, number of surviving cells reduced to 50% of control
Procedure: as §1, §2, §3, §4, §5

[1] = system: cells expressing IDO due to addition of IFNγ (IDO-positive cells); assay: Suppressive effect on growth in IDO-positive cells (all four lines, result in words); type: cell-based, human; conditions: GIST-T1, HCC827, NCI-H1975, NCI-N87 with IFNγ 100 U/mL; 0.001-10 μM; 72 hours; FIG. 3
Procedure: as §1
The amount of ATP generated from surviving cells was determined by CellTiter-Glo2.0 Assay (# G9243, Promega Corporation) to evaluate the cell growth inhibition ability of test substance. […] The intensity of luminescence was measured using a microplate reader (EnSpire™ Multimode Plate Reader, PerkinElmer Japan Co., Ltd.), and used as an index of the number of surviving cells in each well. Using the intensity of luminescence of a group not treated with a test substance (control group) as a control, the cell survival rate (%) was calculated by using the following equation. […]

| Structure (SMILES) | inhibitory effect on IDO expression (IDO protein) | IC50 (GIST-T1) | IC50 (HCC827) | IC50 (NCI-H1975) | IC50 (NCI-N87) | suppressive effect on cell growth [1] |
| --- | --- | --- | --- | --- | --- | --- |
| COc1c(C)cnc(Cn2cnc3c(Cl)nc(N)nc32)c1C [BIIBO21] | inhibitory effect on IDO expression in a concentration-dependent manner |  |  |  |  |  |
| CCc1cc(C(N)=O)ccc1-n1nc(C(C)C)c2c(-n3cnc(-c4cnn(C)c4)c3)ccnc21 [Compound 1, 3-ethyl-4-{3-isopropyl-4-(4-(1-methyl-1H-pyrazol-4-yl)-1H-imidazol-1-yl)-1H-pyrazolo[3,4-b]pyridin-1-yl}benzamide] | inhibitory effect on IDO expression in a concentration-dependent manner | 0.27 µM | 1.42 µM | 0.81 µM | 0.38 µM | suppressive effect on cell growth in a concentration-dependent manner |
| CC(C)c1cc(-c2n[nH]c(=O)n2-c2ccc3c(ccn3C)c2)c(O)cc1O [ganetespib] | inhibitory effect on IDO expression in a concentration-dependent manner |  |  |  |  |  |
